Laboratory results reported in patent publication US20060002946A1, “Targeted immunogens” (Aventis Pasteur, Inc., priority 2003, published 2006).
“Also recorded” adds a separate entry of the source.

Experiments:
[1] = system: mice; assay: Summary of in vivo Immunogenicity Studies (Table IV); design: species or system mouse
[2] = system: A2/Kb mice; assay: Immunization with gp100-154 peptides plus or minus helper CD4 peptide, CTL assay (FIGS. 6, 8, 13); type: in vivo, mouse; settings: for CTL responses / cytotoxicity at three weeks and three months: s.c. immunization, FIG. 13
From the text: Results shown represent the mean value of four individual mice for each group.
FIG. 8. The presence of a helper CD4 hepatitis B peptide is essential for the generation of CTL responses against a CD8 peptide. A2/Kb mice were inoculated intranasally with hPER1-FVYVW-154 peptide at different doses from 50 nmoles to 1 nmoles with or without helper peptide.
FIG. 13. Induction of long-term immunity following hPER1-FVYVW-gp100-154 peptide immunization. CTL responses in A2/Kb mice following 3 weeks or 3 months subcutaneous immunization with gp100-154 epitope alone or in association with hPER1-FVYVW. […] Short-term (3 weeks) as well as long-term (3 months) T cell responses are observed in 4/4 or ¾ mice respectively following hPEr1-FVYVW-154 immunization.
(§1) In carrying out the experiments described in FIGS. 6 and 13, mice were immunized by the specified route with 50 nmol (if not specified otherwise) of peptide plus 50 nmol of a hepatitis B epitope in mice to serve as a helper CD4 peptide. Three weeks after the first injection a boost was carried out with the same regimen, and three weeks after that, spleens were harvested and homogenized to a single suspension. Whole splenocytes were placed into culture with 0.5 ug/ml of the epitope peptide and incubated at 37 degrees for five days. A CTL assay was conducted on day five of culture after Ficoll treatment to purify live cells. Controls that were used are matched Kb or A2 binding peptides.

[3] = system: C57BL/6 mice; assay: i.v. injection of peptide-pulsed dendritic cells, CTL chromium release (FIG. 4); type: in vivo, mouse; settings: 5×10^5 pulsed DCs i.v., one week post immunization, SIINFEKL-pulsed targets
Experimental: FIG. 4. CTL responses in C57BL/6 nice following intravenous (i.v.) injection of peptide-pulsed DCs. Mice were immunized i.v. with 5×10^5 bone marrow-derived DCs pulsed with the indicated peptides.
Consequently, we tested the ability of transcytosis peptides to generate CTL responses in the context of a DC-based vaccine. Murine bone marrow derived dendritic cells were matured in vitro, pulsed with either […] alone, conjugated with either Tat or hPER1 with or without linkers, and were injected intravenously in the tail vein of C57BL/6 mice. One week post immunization, the splenocytes from vaccinated animals were tested for CTL activity following in vitro restimulation.

[4] = system: RMA cells; assay: Sensitization of RMA target cells for CTL lysis, chromium release assay; type: cell-based, mouse; settings: 10 pg/ml peptide, 1 hour at 37° C., 4-hour chromium release, T cells of influenza-immunized C57BL/6 mice
Experimental: (§2) FIG. 1. In vitro sensitization of target cells for peptide-specific lysis by hPER1 conjugates.
To determine whether hPER1-CTL conjugates can form CTL target structures, ^51Cr-labeled RMA cells were pulsed with 10^−11 g/ml NP peptide ([…]) or hPER1-NP peptide ([…]), or were left untreated (no peptide) and incubated for 1 hour at 37° C. The cells were then washed and tested for CTL recognition in a standard 4-hour chromium release assay, using T cells obtained from the spleens of C57BL/6 mice immunized with influenza virus.

[5] = system: Splenocytes from C57BL/6 mice; assay: In vitro analysis of NP peptide presentation, IFN-γ ELISPOT (FIG. 12); type: cell-based, mouse; settings: 10 ug/ml pulse 1 hour; for duration of ability of pulsed cells to stimulate T cells: incubation up to 120 hours (limit of the assay)
Experimental: FIG. 12. In vitro analysis of NP peptide presentation. Splenocytes from C57BL/6 mice were pulsed with 10 ug/ml of the indicated peptides for 1 hour at 37C., washed, and incubated for 0, 24, 72, or 120 hours. Cells were then tested by ELISPOT for their ability to induce IFN-γ secretion from NP-specific T cells.
FIG. 12 illustrates a similar analysis performed using the NP system.

[6] = system: HLA-A2/Kb transgenic mice; assay: s.c. peptide immunization, gp100-154 CTL chromium release (FIG. 5); settings: 50 ug s.c., boosts days 21 and 42, day 63
Experimental: CTL responses in HLA-A2/Kb transgenic mice following subcutaneous (s.c.) injection of peptide. Mice were immunized s.c. with 50 ug of the indicated peptides and boosted on days 21 and 42 following the first injection. Splenocytes from immunized animals were harvested on day 63 post immunization, re-stimulated with the native gp100-154 peptide for 5 days, and tested for CTL activity in a standard chromium release assay using target cells pulsed with gp100-154 peptide.
Furthermore, CTL responses were assessed in HLA-A2/K^b transgenic mice (Sherman strain) following s.c. immunization with gp100-154 peptide alone, conjugated to hPER1 or AntpHD with or without linker FVYVW. Mice were boosted on days 21 and 42 and splenocytes from vaccinated animals were harvested on day 63 and tested for CTL activity after 5 days of restimulation in vitro.

[7] = system: Splenocytes from C57BL/6 mice; assay: In vitro analysis of OVA ([…]) peptide presentation, IFN-γ ELISPOT (FIG. 11); type: cell-based, mouse; settings: 10 ug/ml pulse 1 hour; for stimulatory activity of pulsed cells after 30 hours: 30 hours incubation, IFN-γ ELISPOT
Experimental: FIG. 11. In vitro analysis of OVA ([…]) peptide presentation. Splenocytes from C57BL/6 mice were pulsed with 10 ug/ml of the indicated peptides for 1 hour at 37° C., washed, and incubated for 0, 4, 8, 24, or 30 hours. Cells pulsed with transduction peptides were pre-incubated with a bGAL peptide to block any cell surface binding. The cells were then tested by ELISPOT for their ability to induce IFN-γ secretion from […]-specific T cells. Spot counts greater than 300/well could not be counted. *=sample not tested.
To further study the effect of coupling CTL epitopes to the hPER1 transduction domain, the following in vitro assay was developed to assess the kinetics of antigen presentation following incubation of cells with peptide. In FIG. 11, splenocytes from C57BL/6 mice were incubated with different OVA-based peptides for 1 hour at 37° C. The cells were then washed to remove any residual free peptide, and incubated in culture medium at 37° C. for 0, 4, 8, 24 or 30 hours. The cells were then tested for their ability to stimulate IFN-γ production from […]-specific T cells by ELISPOT.

[8] = system: C57BL/6 mice; assay: Immunization with […] conjugates, CTL assay (FIGS. 7, 9, 10); type: in vivo, mouse; settings: for cytotoxicity levels, adjuvant free immunization: s.c. without adjuvant; for CTL responses / cytotoxicity, Tat versus hPER1 conjugates: s.c., DEVWEL linker, FIG. 7
From the text: FIG. 7. In vivo induction of T cell responses using hPER1 or Tat peptides conjugated to […] epitope. Mice were immunized subcutaneously with […] peptide associated to either Tat or hPER1 with the DEVWEL linker sequence. Results shown in this figure represent the mean value of 4 individual mice for each group.
FIG. 9. […] C57BL/6 mice were immunized intradermally with different doses of hPER1-SGQL-[…] with or without helper peptide.
FIG. 10. In vivo induction of immunity following adjuvant free peptide immunization with hPER1 associated to […] in the presence of different linker sequences.
as §1

[9] = system: HLA-A2/K^b transgenic mice; assay: s.c. immunization without adjuvant, CTL assay (FIG. 3B); type: in vivo, mouse; settings: 100 μg s.c. plus T-helper peptide, no adjuvant, boosts days 14 and 28
From the text: Mice were similarly boosted on days 14 and 28. […] Average responses from each group are shown.

[10] = system: PBMCs from an HLA-A2-positive patient; assay: In vitro induction of human CTL in PBMC culture, chromium release assay; type: cell-based; settings: repeated in vitro stimulation, day 42, C1R-A2 target cells pulsed with 280-9V
Experimental: FIG. 2. In vitro induction of human T cell responses using a hPER1 conjugate peptide.
Peripheral blood mononuclear cells (PBMCs) from an HLA-A2-positive patient were cultured in the presence of IL-2 (50 U/ml), IL-7 (10 ng/ml), LPS (10 μg/ml), CD40-ligand expressing 3T3 cells, and peptide (10 μg/ml of 280-9V or hPER1-280-9V). On days 11, 22, and 32 the cells were restimulated by culturing in the presence of IL-2 (50 U/ml) and IL-7 (10 ng/ml) and autologous, CD40-ligand activated PBMCs pulsed with peptide (100 μg/ml of 280-9V or hPER1-280-9V) for 3 hours.

[11] = system: P815-A2/K^b cells; assay: Sensitization of P815-A2/K^b target cells for CTL lysis, chromium release assay; type: cell-based, mouse
Experimental: as §2
Further, ^51Cr-labeled P815-A2/K^b cells were pulsed with 10^−6 g/ml 280-9V peptide ([…]) or hPER1-280-9V ([…]) or were left untreated (no peptide) and incubated for 1 hour at 37° C. The cells were then washed and tested for CTL recognition in a standard 4-hour chromium release assay, using T cells obtained from the spleens of HLA-A2/K^b transgenic mice immunized with 280-9V peptide in incomplete Freund's adjuvant. Where indicated, 5 μg/ml brefeldin A (BFA) was included in the assay, to block the surface expression of nascent class I MHC molecules. […] The level of CTL killing is reduced if the hPER1-280-9V-pulsed target cells are treated with brefeldin A, which blocks the intracellular transport of newly synthesized MHC molecules.

[12] = grades − to + + + +, key not given

## RRHHRRSKAKRSRSVYDFFVWL [hPER1, no linker, TRP-2]
[1]; [12]
  Immunogenicity in mice: + +

## RRHHRRSKAKRSRFVYVWSVYDFFVWL [hPER1, linker FVYVW, TRP-2]
[1]; [12]
  Immunogenicity in mice: + + +

## KTWGQYWQV [reference compound]
[2]; listed as 154
  CTL responses / cytotoxicity at three weeks and three months: did not induce cytotoxicity at either three weeks or three months; also recorded: does not generate significant CTL responses

## GYGRKKRRQRRR-LEQLE-SIINFEKL
[3]
  CTL responses after peptide-pulsed DC vaccine: less immunogenic than TAT-SIINFEKL without linker

## GRRHHRRSKAKRSRASNENMETM [hPER1, no linker, flu NP366-374]
[4]
  sensitization of RMA target cells for CTL-mediated lysis: can be sensitized for CTL-mediated lysis
[5]
  duration of ability of pulsed cells to stimulate T cells: retain their ability to stimulate T cells out to five days

## RRHHRRSKAKRSRFVYVWKTWGQYWQV [hPER1, linker FVYVW, gp100-154] [listing 1 of 2 here]
[1]; mouse, in vivo
  Immunogenicity in mice: + + + +

## RQIKIWFQNRRMKWKKLKTWGQYWQV [AntpHD, linker L, gp100-154]
[1]; [12]
  Immunogenicity in mice: + + +

## ASNENMETM [reference compound]
[5]; IFN-γ ELISPOT with NP-specific T cells
  stimulatory activity of pulsed cells after 24 hours of incubation: shows a loss in activity

## RRHHRRSKAKRSRLSVYDFFVWL [hPER1, linker L, TRP2]
[1]; [12]
  Immunogenicity in mice: + +

## RQIKIWFQNRRMKWKKTWVGQYWQV
[6]
  CTL responses against gp100-154: a weak response was observed

## SVYDFFVWL [TRP2 peptide, unconjugated, reference compound]
[3]
  CTL responses after peptide-pulsed DC vaccine: non immunogenic
[1]; [12]
  Immunogenicity in mice: + +

## RRHHRRSKAKRSRFVYVWKTWGQYWQV [hPER1, linker FVYVW, gp100-154] [listing 2 of 2 here]
[2]; 50 nmol peptide plus 50 nmol helper peptide, intradermal, subcutaneous or intranasal
  CTL responses by different routes of immunization: can be generated through different routes of immunization
[2]; intranasal, 10 nmoles, absence of helper peptide
  cytotoxicity at 10 nmoles without helper peptide: does not induce significant cytotoxicity
[2]; intranasal, in the absence of helper peptide
  T cell cytotoxicity, without helper peptide: induced much lower levels of cytotoxicity
[2]; intranasal, in the presence of helper CD4 hepatitis B peptide
  T cell cytotoxicity, with helper peptide: induced significant T cell cytotoxicity
[2]
  CTL responses / cytotoxicity at three weeks and three months: induced cytotoxicity that was detectable for at least three months
[2]; s.c., 3 months, 4 mice/group
  mice with long-term T cell responses: ¾
[2]; s.c., 3 weeks, 4 mice/group
  mice with short-term T cell responses: 4/4

## SIINFEKL [reference compound]
[7]; IFN-γ ELISPOT with SIINFEKL-specific T cells
  incubation time by which pulsed cells lose their stimulatory capacity: ≤ 24 h
[8]; administered with incomplete Fruend's adjuvant, FIG. 10
  cytotoxicity levels, peptide in IFA: comparable

## RRHHRRSKAKRSRDEVWELSIINFEKL [hPER1, linker DEVWEL, OVA]
[8]; FIG. 10
  cytotoxicity levels, adjuvant free immunization: comparable
[8]
  CTL responses / cytotoxicity, Tat versus hPER1 conjugates: gave the best CTL responses as compared to the positive control SIINFEKL in IFA
[8]; listed as hPER1-DEVWEL-SIINFEKL
  CTL responses / cytotoxicity, Tat versus hPER1 conjugates: induced a greater level of cytotoxicity as compared to Tat-DEVWEL-SIINFEKL at all E:T ratios tested
[1]; [12]
  Immunogenicity in mice: + + + +

## YGRKKRRQRRRDEVWELSIINFEKL
[7]
  stimulatory activity of pulsed cells after 30 hours: no reduction in activity
[1]; mouse, in vivo
  Immunogenicity in mice: + + +

## RRHHRRSKAKRSRSIINFEKL [hPER1, no linker, OVA]
[3]
  CTL responses after peptide-pulsed DC vaccine: generated a stronger response than either DCs pulsed with native SIINFEKL peptide or hPER1-LEQLE-SIINFEKL

## RRHHRRSKAKRSRFVYVWSIINFEKL [hPER1, linker FVYVW, OVA]
[8]; FIG. 10
  cytotoxicity levels, adjuvant free immunization: comparable
[1]; [12]
  Immunogenicity in mice: + + + +

## RRHHRRSKAKRSRYLEPGPVTV [hPER1-280-9V]
[9]
  peptide-specific CTL responses: can be induced
[10]
  induction of 280-9V-specific human CTLs: can be induced
[11]; 5 μg/ml brefeldin A in the assay
  level of CTL killing of peptide-pulsed target cells treated with brefeldin A: reduced
[11]; 10^−6 g/ml peptide, 1 hour at 37° C., 4-hour chromium release
  sensitization of P815-A2/K^b target cells for CTL recognition: can be sensitized

## RRHHRRSKAKRSRRGVQIASNENMETM [hPER1, linker RGVQI, flu NP366-374]
[5]
  duration of ability of pulsed cells to stimulate T cells: retain their ability to stimulate T cells out to five days

## RQIKIWFQNRRMKWKKFVYVWKTWGQYWQV [AntpHD, linker FVYVW, gp100-154]
[1]; [12]
  Immunogenicity in mice: + + + +

## RRHHRRSKAKRSRSGQLSIINFEKL [hPER1, linker SGQL, OVA]
[7]
  stimulatory activity of pulsed cells after 30 hours: no reduction in activity
[8]; intradermal, different doses, absence of helper peptide, FIG. 9
  T cell responses without helper peptide at higher peptide dose: can induce T cell responses in mice
